Test results as given in patent US8901118B2, “Compounds and methods for kinase modulation, and indications therefor” (Plexxikon Inc., priority 2010, dated 2014).

What was measured:
[1] = molecular target: c-Kit kinase (Homo sapiens, UniProt P10721); test: c-Kit kinase biochemical activity assay (AlphaScreen, biotin-(E4Y)10 phosphorylation); settings: 100 μM ATP; read-out: Biochemical Inhibition IC50 Kit
Method in brief: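 Phosphorylation of 30 nM biotin-(E4Y)10 by c-Kit (0.75 ng per reaction) with 100 µM ATP in HEPES pH 7.5 buffer with Mg2+/Mn2+, 5% DMSO, 1 h at room temperature; 8-point 1:2 compound dilutions. AlphaScreen detection with streptavidin donor and PY20 acceptor beads after EDTA stop. IC50 from signal versus concentration.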

[2] = molecular target: T1, BCR-FMS BaF3 cells (Homo sapiens, UniProt P07333); test: BaF3 BCR-FMS cell proliferation assay (ATPlite); assay type: cell-based; settings: read-out: Inhibition of Cell Proliferation IC50, BCR/BaF3 Fms
T1 construct: fused on or other part: P11274 (Breakpoint cluster region protein)
T1 sequence (P07333 582-910): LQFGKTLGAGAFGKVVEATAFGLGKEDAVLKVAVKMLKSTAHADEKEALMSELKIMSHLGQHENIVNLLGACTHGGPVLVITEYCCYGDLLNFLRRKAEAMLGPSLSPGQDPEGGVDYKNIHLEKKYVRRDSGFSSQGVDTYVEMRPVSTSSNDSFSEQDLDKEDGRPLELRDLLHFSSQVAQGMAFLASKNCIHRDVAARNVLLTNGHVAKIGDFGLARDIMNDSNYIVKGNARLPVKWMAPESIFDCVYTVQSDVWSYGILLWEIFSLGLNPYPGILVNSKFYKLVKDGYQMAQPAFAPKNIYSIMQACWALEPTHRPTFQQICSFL
Method in brief: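 BaF3 lines were seeded at 10,000 cells/well in growth medium with 1 mg/mL G418 but no IL-3, and MV-4-11 cells at 25,000 cells/well; plates were left overnight at 37 °C. Compounds were added as an 8-point 1:3 series with a top concentration of 10 μM and incubated 3 days. IC50 was taken from ATPlite luminescence.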

Sequence of c-Kit kinase (P10721 26-976): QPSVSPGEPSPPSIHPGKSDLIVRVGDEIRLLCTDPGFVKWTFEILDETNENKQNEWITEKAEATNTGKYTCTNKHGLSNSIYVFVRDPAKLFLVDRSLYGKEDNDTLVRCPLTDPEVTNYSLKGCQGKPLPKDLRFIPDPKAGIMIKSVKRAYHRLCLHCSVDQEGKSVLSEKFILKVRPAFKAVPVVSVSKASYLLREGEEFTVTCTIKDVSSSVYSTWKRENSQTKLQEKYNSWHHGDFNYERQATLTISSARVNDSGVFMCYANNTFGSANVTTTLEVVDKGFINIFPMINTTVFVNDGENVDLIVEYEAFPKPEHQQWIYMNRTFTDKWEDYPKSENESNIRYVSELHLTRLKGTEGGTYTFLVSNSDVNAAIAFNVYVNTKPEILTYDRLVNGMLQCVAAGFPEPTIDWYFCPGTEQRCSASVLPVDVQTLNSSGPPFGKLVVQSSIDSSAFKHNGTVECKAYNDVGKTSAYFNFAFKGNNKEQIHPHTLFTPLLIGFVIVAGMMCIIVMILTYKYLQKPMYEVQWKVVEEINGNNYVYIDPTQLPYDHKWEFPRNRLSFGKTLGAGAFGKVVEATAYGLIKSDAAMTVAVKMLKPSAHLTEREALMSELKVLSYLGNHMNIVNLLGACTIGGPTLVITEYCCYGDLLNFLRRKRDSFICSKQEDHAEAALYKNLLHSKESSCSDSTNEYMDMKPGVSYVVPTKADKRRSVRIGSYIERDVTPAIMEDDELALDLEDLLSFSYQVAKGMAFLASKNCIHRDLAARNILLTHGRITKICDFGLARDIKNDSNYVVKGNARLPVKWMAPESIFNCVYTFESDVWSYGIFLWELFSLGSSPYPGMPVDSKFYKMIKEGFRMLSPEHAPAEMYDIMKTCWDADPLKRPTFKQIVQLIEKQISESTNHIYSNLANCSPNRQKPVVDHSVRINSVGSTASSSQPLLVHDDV

CCc1ccc(Nc2ncc(Cc3c[nH]c4ncc(C)cc34)cn2)cc1 [Compound P-3025, (4-Ethyl-phenyl)-[5-(5-methyl-1H-pyrrolo[2,3-b]pyridin-3-ylmethyl)-pyrimidin-2-yl]-amine]
IC50 [1]: < 10 nM
IC50 [2]: < 10 nM

Clc1cnc2[nH]cc(Cc3cnc(NC4CCCC4)nc3)c2c1 [Compound P-3003, [5-(5-Chloro-1H-pyrrolo[2,3-b]pyridin-3-ylmethyl)-pyrimidin-2-yl]-cyclopentyl-amine]
IC50 [1]: > 1000 nM
IC50 [2]: < 1000 nM

CCOc1ccc(Nc2ccc(Cc3c[nH]c4ncnc(C5CC5)c34)c(F)n2)cn1 [Compound P-4026, [5-(4-Cyclopropyl-7H-pyrrolo[2,3-d]pyrimidin-5-ylmethyl)-6-fluoro-pyridin-2-yl]-(6-ethoxy-pyridin-3-yl)-amine]
IC50 [1]: < 1000 nM
IC50 [2]: < 10 nM

CCn1ccc(Nc2ncc(Cc3c[nH]c4ncc(C)cc34)cn2)n1 [Compound P-3035, (1-Ethyl-1H-pyrazol-3-yl)-[5-(5-methyl-1H-pyrrolo[2,3-b]pyridin-3-ylmethyl)-pyrimidin-2-yl]-amine]
IC50 [1]: < 100 nM
IC50 [2]: < 100 nM

Cc1cnc2[nH]cc(Cc3cnc(Nc4cc(-c5ccc(F)cc5)n[nH]4)nc3)c2c1 [Compound P-3028, [5-(4-Fluoro-phenyl)-2H-pyrazol-3-yl]-[5-(5-methyl-1H-pyrrolo[2,3-b]pyridin-3-ylmethyl)-pyrimidin-2-yl]-amine]
IC50 [1]: < 1000 nM
IC50 [2]: < 1000 nM

CCOc1ncnc2[nH]cc(Cc3ccc(Nc4cccnc4)nc3F)c12 [Compound P-4021, [5-(4-Ethoxy-7H-pyrrolo[2,3-d]pyrimidin-5-ylmethyl)-6-fluoro-pyridin-2-yl]-pyridin-3-yl-amine]
IC50 [1]: < 1000 nM
IC50 [2]: < 1000 nM

Cc1cnc2[nH]cc(Cc3ccc(Nc4ccc(C)nc4)nc3F)c2c1 [Compound P-3041, [6-Fluoro-5-(5-methyl-1H-pyrrolo[2,3-b]pyridin-3-ylmethyl)-pyridin-2-yl]-(6-methyl-pyridin-3-yl)-amine]
IC50 [1]: < 1000 nM
IC50 [2]: < 10 nM

COc1cc(Nc2ncc(Cc3c[nH]c4ncc(C)cc34)cn2)ccc1F [Compound P-3022, (4-Fluoro-3-methoxy-phenyl)-[5-(5-methyl-1H-pyrrolo[2,3-b]pyridin-3-ylmethyl)-pyrimidin-2-yl]-amine]
IC50 [1]: < 100 nM
IC50 [2]: < 100 nM

COc1ncnc2[nH]cc(Cc3ccc(Nc4ccc(C5CC5)nc4)nc3F)c12 [Compound P-4004, (6-Cyclopropyl-pyridin-3-yl)-[6-fluoro-5-(4-methoxy-7H-pyrrolo[2,3-d]pyrimidin-5-ylmethyl)-pyridin-2-yl]-amine]
IC50 [1]: < 100 nM
IC50 [2]: < 10 nM

Cc1cnc2[nH]cc(Cc3cnc(Nc4cc(C(C)(C)C)n[nH]4)nc3)c2c1 [Compound P-3029, (5-tert-Butyl-2H-pyrazol-3-yl)-[5-(5-methyl-1H-pyrrolo[2,3-b]pyridin-3-ylmethyl)-pyrimidin-2-yl]-amine]
IC50 [1]: < 1000 nM
IC50 [2]: < 100 nM

COc1ncnc2[nH]cc(Cc3ccc(Nc4ccc(C)nc4)nc3F)c12 [Compound P-4010, [6-Fluoro-5-(4-methoxy-7H-pyrrolo[2,3-d]pyrimidin-5-ylmethyl)-pyridin-2-yl]-(6-methyl-pyridin-3-yl)-amine]
IC50 [1]: < 1000 nM
IC50 [2]: < 10 nM

CCn1cc(Nc2ccc(Cc3c[nH]c4ncnc(C5CC5)c34)c(F)n2)cn1 [Compound P-4036, [5-(4-Cyclopropyl-7H-pyrrolo[2,3-d]pyrimidin-5-ylmethyl)-6-fluoro-pyridin-2-yl]-(1-ethyl-1H-pyrazol-4-yl)-amine]
IC50 [1]: < 1000 nM
IC50 [2]: < 100 nM

CCn1cc(Nc2ccc(C(=O)c3c[nH]c4ncnc(C5CC5)c34)c(F)n2)cn1 [Compound P-4037, (4-Cyclopropyl-7H-pyrrolo[2,3-d]pyrimidin-5-yl)-[6-(1-ethyl-1H-pyrazol-4-ylamino)-2-fluoro-pyridin-3-yl]-methanone]
IC50 [1]: < 1000 nM
IC50 [2]: < 100 nM

Cc1ccc(Nc2ccc(Cc3c[nH]c4ncnc(C5CC5)c34)c(F)n2)cn1 [Compound P-4030, [5-(4-Cyclopropyl-7H-pyrrolo[2,3-d]pyrimidin-5-ylmethyl)-6-fluoro-pyridin-2-yl]-(6-methyl-pyridin-3-yl)-amine]
IC50 [1]: < 1000 nM
IC50 [2]: < 10 nM

COCCOc1ncnc2[nH]cc(Cc3ccc(Nc4ccc(C)nc4)nc3F)c12 [Compound P-4015, {6-Fluoro-5-[4-(2-methoxy-ethoxy)-7H-pyrrolo[2,3-d]pyrimidin-5-ylmethyl]-pyridin-2-yl}-(6-methyl-pyridin-3-yl)-amine]
IC50 [1]: < 100 nM
IC50 [2]: < 10 nM

Cc1cnc2[nH]cc(Cc3cnc(Nc4ccc(S(C)(=O)=O)cc4)nc3)c2c1 [Compound P-3034, (4-Methanesulfonyl-phenyl)-[5-(5-methyl-1H-pyrrolo[2,3-b]pyridin-3-ylmethyl)-pyrimidin-2-yl]-amine]
IC50 [1]: < 100 nM
IC50 [2]: < 10 nM

Cc1ccc(Nc2ccc(Cc3c[nH]c4ncc(Cl)cc34)c(F)n2)cn1 [Compound P-3042, [5-(5-Chloro-1H-pyrrolo[2,3-b]pyridin-3-ylmethyl)-6-fluoro-pyridin-2-yl]-(6-methyl-pyridin-3-yl)-amine]
IC50 [1]: < 100 nM
IC50 [2]: < 100 nM

Fc1nc(Nc2ccc(C3CC3)nc2)ccc1Cc1c[nH]c2ncccc12 [Compound P-3053, (6-Cyclopropyl-pyridin-3-yl)-[6-fluoro-5-(1H-pyrrolo[2,3-b]pyridin-3-ylmethyl)-pyridin-2-yl]-amine]
IC50 [1]: < 100 nM
IC50 [2]: < 10 nM

COc1ccc(Nc2ncc(Cc3c[nH]c4ncc(C)cc34)cn2)cc1 [Compound P-3021, (4-Methoxy-phenyl)-[5-(5-methyl-1H-pyrrolo[2,3-b]pyridin-3-ylmethyl)-pyrimidin-2-yl]-amine]
IC50 [1]: < 10 nM
IC50 [2]: < 10 nM

CCOc1ccc(Nc2ncc(Cc3c[nH]c4ncc(C)cc34)cn2)cn1 [Compound P-3027, (6-Ethoxy-pyridin-3-yl)-[5-(5-methyl-1H-pyrrolo[2,3-b]pyridin-3-ylmethyl)-pyrimidin-2-yl]-amine]
IC50 [1]: < 10 nM
IC50 [2]: < 10 nM

Cc1cncc(Nc2ccc(C(=O)c3c[nH]c4ncnc(C5CC5)c34)c(F)n2)c1 [Compound P-4039, (4-Cyclopropyl-7H-pyrrolo[2,3-d]pyrimidin-5-yl)-[2-fluoro-6-(5-methyl-pyridin-3-ylamino)-pyridin-3-yl]-methanone]
IC50 [1]: < 1000 nM
IC50 [2]: < 100 nM

CCOc1ccc(Nc2ccc(Cc3c[nH]c4ncc(C)cc34)c(F)n2)cn1 [Compound P-3039, (6-ethoxy-pyridin-3-yl)-[6-fluoro-5-(5-methyl-1H-pyrrolo[2,3-b]pyridin-3-ylmethyl)-pyridin-2-yl]-amine]
IC50 [1]: < 100 nM
IC50 [2]: < 10 nM

Fc1nc(NC2CCC(F)(F)CC2)ccc1Cc1c[nH]c2ncnc(NC3CC3)c12 [Compound P-4129, N-cyclopropyl-5-[[6-[(4,4-difluorocyclohexyl)amino]-2-fluoro-3-pyridyl]methyl]-7H-pyrrolo[2,3-d]pyrimidin-4-amine]
IC50 [1]: < 1000 nM
IC50 [2]: < 100 nM

CSc1ccc(Nc2ncc(Cc3c[nH]c4ncc(C)cc34)cn2)cc1 [Compound P-3033, [5-(5-Methyl-1H-pyrrolo[2,3-b]pyridin-3-ylmethyl)-pyrimidin-2-yl]-(4-methylsulfanyl-phenyl)-amine]
IC50 [1]: < 10 nM
IC50 [2]: < 10 nM

CCCOc1ccc(Nc2ncc(Cc3c[nH]c4ncc(C)cc34)cn2)cc1 [Compound P-3024, [5-(5-Methyl-1H-pyrrolo[2,3-b]pyridin-3-ylmethyl)-pyrimidin-2-yl]-(4-propoxy-phenyl)-amine]
IC50 [1]: < 10 nM
IC50 [2]: < 10 nM

Cc1cnc2[nH]cc(C(=O)c3ccc(Nc4ccc(C5CC5)nc4)nc3F)c2c1 [Compound P-3051, [6-(6-Cyclopropyl-pyridin-3-ylamino)-2-fluoro-pyridin-3-yl]-(5-methyl-1H-pyrrolo[2,3-b]pyridin-3-yl)-methanone]
IC50 [1]: < 100 nM
IC50 [2]: < 100 nM

Clc1cnc2[nH]cc(Cc3cnc(NC4CCCCCC4)nc3)c2c1 [Compound P-3006, [5-(5-Chloro-1H-pyrrolo[2,3-b]pyridin-3-ylmethyl)-pyrimidin-2-yl]-cycloheptyl-amine]
IC50 [1]: < 1000 nM
IC50 [2]: < 1000 nM

COc1ccc(Nc2ccc(Cc3c[nH]c4ncnc(OC)c34)c(F)n2)cn1 [Compound P-4001, [6-Fluoro-5-(4-methoxy-7H-pyrrolo[2,3-d]pyrimidin-5-ylmethyl)-pyridin-2-yl]-(6-methoxy-pyridin-3-yl)-amine]
IC50 [1]: < 1000 nM
IC50 [2]: < 10 nM

Fc1cccc(Nc2ncc(Cc3c[nH]c4ncc(Cl)cc34)cn2)c1 [Compound P-3017, [5-(5-Chloro-1H-pyrrolo[2,3-b]pyridin-3-ylmethyl)-pyrimidin-2-yl]-(3-fluoro-phenyl)-amine]
IC50 [1]: < 1000 nM
IC50 [2]: < 1000 nM

Cc1ccc(Nc2ccc(C(=O)c3c[nH]c4ncnc(C5CC5)c34)c(F)n2)cn1 [Compound P-4031, (4-Cyclopropyl-7H-pyrrolo[2,3-d]pyrimidin-5-yl)-[2-fluoro-6-(6-methyl-pyridin-3-ylamino)-pyridin-3-yl]-methanone]
IC50 [1]: < 100 nM
IC50 [2]: < 100 nM
